Source: patent US12448399B2, “Cereblon-based KRAS degrading PROTACs and uses related thereto” (Arvinas Operations, Inc., priority 2023, dated 2025)

Assays:
[1] = tested on: Panc04.03; experiment: Tumor growth inhibition in vivo, Panc04.03 pancreatic cancer model; parameters: species or system NOD/SCID female mice; conditions: Panc04.03 model, dosed intravenously (IV)
Description: (§1) The effect on tumor growth of treatment with Compound 69 and 102 was assessed in the GP2d (95090714 Millipore Sigma, USA) and LS180 (CL-187 ATCC, USA) colorectal cancer models, and the AsPC-1 (CRL-1682 ATCC, USA), SW1990 (CRL-2172, ATCC, USA), HPAC (CRL-2119 ATCC, USA), and Panc04.03 (CRL-2555 ATCC, USA) pancreatic cancer models. Briefly, cells were grown in HYPER flasks (Corning) and harvested and prepared for implant by preparing a suspension with a final concentration of 25×10^6 cells/ml in 50% matrigel (Corning) and 50% phenol red-free media (Gibco DMEM or RPMI-1640, depending on cell line). For Panc04.03, 6-7 week NOD/SCID female mice (GemPharmatech Co. Ltd) were inoculated with 200 μl of the cell suspension ([…]) subcutaneously on the left flank under sterile conditions. For all other cell lines, 6-8 weeks old CB17 SCID female mice (Charles River Laboratories) were inoculated with 200 μl of the cell suspension (5 million cells/mouse) subcutaneously on the left flank under sterile conditions. Studies were initiated when tumors reached an average of approximately 200 mm^3. […] Tumor growth inhibition (TGI) was calculated using the formula % TGI=(VC−VT)/(VC−V0)×100 where VC, VT are the average of control and treated groups at the end of the study, and V0 is the average tumor volume at randomization.

[2] = biological target: T1, KRas-G12D (Homo sapiens, UniProt P01116, G12D); experiment: HiBiT Degradation Assay (G12D), AsPC-1 HiBiT-KRasG12D cells, 24 hr; assay type: cell-based; conditions: for Dmax: ASPC1, AsPC-1 cells, maximum degradation observed; for DC50: AsPC-1 cells
T1 construct: insert the HiBiT tag onto the N-terminus of one or more of the endogenous KRas alleles; host or cells: AsPC-1 HiBiT-KRasG12D knock-in clone (one tagged allele, two untagged KRasG12D alleles)
In short: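 AsPC-1 cells with CRISPR N-terminal HiBiT knock-in on one endogenous KRasG12D allele, treated 24 hr at 37° C with compound titrations in 0.5% DMSO. Lytic HiBiT luminescence normalized to DMSO, fitted to a 4-parameter model for DC50 and Dmax. Parallel alamar blue (4 hr) checked viability.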

[3] = tested on: GP2d; experiment: Tumor growth inhibition in vivo, GP2d colorectal cancer model; parameters: species or system CB17 SCID female mice; conditions: dosed intravenously (IV)
Description: as §1

[4] = tested on: AsPC-1; experiment: Tumor growth inhibition in vivo, AsPC-1 pancreatic cancer model; parameters: species or system CB17 SCID female mice; conditions: AsPC-1 model, dosed intravenously (IV)
Description: as §1

[5] = tested on: LS180; experiment: Tumor growth inhibition in vivo, LS180 colorectal cancer model; parameters: species or system CB17 SCID female mice; conditions: dosed intravenously (IV)
Description: as §1

[6] = tested on: HPAC; experiment: Tumor growth inhibition in vivo, HPAC pancreatic cancer model; parameters: species or system CB17 SCID female mice; conditions: dosed intravenously (IV)
Description: as §1

[7] = tested on: SW1990; experiment: Tumor growth inhibition in vivo, SW1990 pancreatic cancer model; parameters: species or system CB17 SCID female mice; conditions: dosed intravenously (IV)
Description: as §1

T1 sequence (P01116 1-188 isoform P01116-2 G12D): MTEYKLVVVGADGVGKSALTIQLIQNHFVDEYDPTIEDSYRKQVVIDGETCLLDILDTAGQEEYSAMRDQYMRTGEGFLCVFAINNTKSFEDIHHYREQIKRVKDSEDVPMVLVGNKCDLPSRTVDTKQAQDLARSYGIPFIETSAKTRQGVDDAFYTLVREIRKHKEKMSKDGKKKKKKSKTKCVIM

| SMILES | Dmax [2] | DC50 [2] | further results |
| --- | --- | --- | --- |
| C#Cc1c(F)ccc2cc(O)cc(-c3ncc4c(N5CC6CCC(C5)N6)nc(OCCN5CCC(CC6CCN(CC7CCN(c8ccc9c(c8F)CN(C8CCC(=O)NC8=O)C9=O)CC7)CC6)CC5)nc4c3F)c12 (centres unmarked) [Compound 69, 3-[5-[4-[[4-[[1-[2-[4-(3,8-diazabicyclo[3.2.1]octan-3-yl)-7-(8-ethynyl-7-fluoro-3-hydroxy-1-naphthyl)-8-fluoro-pyrido[4,3-d]pyrimidin-2-yl]oxyethyl]-4-piperidyl]methyl]-1-piperidyl]methyl]-1-piperidyl]-4-fluoro-1-oxo-isoindolin-2-yl]piperidine-2,6-dione] | > 70% | < 5.1 µM | Tumor growth inhibition (TGI) [1]: robust TGI; Tumor growth inhibition (TGI) [3]: robust TGI; Tumor growth response [4]: More moderate response; Tumor growth inhibition (TGI) [5]: robust TGI; Tumor growth inhibition (TGI) [6]: robust TGI; Tumor growth inhibition (TGI) [7]: robust TGI |
| C#Cc1c(F)ccc2cc(O)cc(-c3ncc4c(N5CC6CCC(C5)N6)nc(OCCN5CCC(CC6CCN(CC7CCN(c8ccc9c(c8)n(C)c(=O)n9C8CCC(=O)NC8=O)CC7)CC6)CC5)nc4c3F)c12 (centres unmarked) [Compound 102, 3-[5-[4-[[4-[[1-[2-[4-(3,8-diazabicyclo[3.2.1]octan-3-yl)-7-(8-ethynyl-7-fluoro-3-hydroxy-1-naphthyl)-8-fluoro-pyrido[4,3-d]pyrimidin-2-yl]oxyethyl]-4-piperidyl]methyl]-1-piperidyl]methyl]-1-piperidyl]-3-methyl-2-oxo-benzimidazol-1-yl]piperidine-2,6-dione] | > 70% | < 5.1 µM | Tumor growth inhibition (TGI) [1]: robust TGI; Tumor growth inhibition (TGI) [3]: robust TGI; TGI [4]: 100%; Tumor growth inhibition (TGI) [5]: robust TGI; Tumor growth inhibition (TGI) [6]: robust TGI; Tumor growth inhibition (TGI) [7]: robust TGI |
| C#Cc1c(F)ccc2cc(O)cc(-c3ncc4c(N5CC6CCC(C5)N6)nc(OCC5(CN6CCC(CC7CCN(CC8CN(c9ccc%10c(c9)n(C)c(=O)n%10C9CCC(=O)NC9=O)C8)CC7)CC6)CC5)nc4c3F)c12 (centres unmarked) [Compound 229, 3-[5-[3-[[4-[[1-[[1-[[4-(3,8-diazabicyclo[3.2.1]octan-3-yl)-7-(8-ethynyl-7-fluoro-3-hydroxy-1-naphthyl)-8-fluoro-pyrido[4,3-d]pyrimidin-2-yl]oxymethyl]cyclopropyl]methyl]-4-piperidyl]methyl]-1-piperidyl]methyl]azetidin-1-yl]-3-methyl-2-oxo-benzimidazol-1-yl]piperidine-2,6-dione] | > 70% | < 5.1 µM |  |
| C#Cc1c(F)ccc2cc(O)cc(-c3ncc4c(N5CC6CCC(C5)N6)nc(CCCN5CCC(CC6CCN(CC7CCN(c8ccc9c(c8)n(C)c(=O)n9C8CCC(=O)NC8=O)CC7)CC6)CC5)nc4c3F)c12 (centres unmarked) [Compound 230, 3-[5-[4-[[4-[[1-[3-[4-(3,8-diazabicyclo[3.2.1]octan-3-yl)-7-(8-ethynyl-7-fluoro-3-hydroxy-1-naphthyl)-8-fluoro-pyrido[4,3-d]pyrimidin-2-yl]propyl]-4-piperidyl]methyl]-1-piperidyl]methyl]-1-piperidyl]-3-methyl-2-oxo-benzimidazol-1-yl]piperidine-2,6-dione] |  | < 5.1 µM |  |
| C#Cc1c(F)ccc2cc(O)cc(-c3ccc4c(N5CC6CCC(C5)N6)nc(OCCN5CCC(CN6CCC(CC7CCN(c8ccc9c(c8F)n(C)c(=O)n9C8CCC(=O)NC8=O)CC7)CC6)CC5)nc4c3F)c12 (centres unmarked) [Compound 231] | > 70% | < 5.1 µM |  |
| C#Cc1c(F)ccc2cc(O)cc(-c3ccc4c(N5CC6CCC(C5)N6)nc(OCCN5CCC(CC6CCN(CC7CCN(c8ccc9c(c8F)n(C)c(=O)n9C8CCC(=O)NC8=O)CC7)CC6)CC5)nc4c3F)c12 (centres unmarked) [Compound 232] | > 70% | < 5.1 µM |  |
| C#Cc1c(F)ccc2cc(O)cc(-c3ccc4c(N5CC6CCC(C5)N6)nc(OCCN5CCC(CN6CCC(CC7CCN(c8ccc9c(c8)n(C)c(=O)n9C8CCC(=O)NC8=O)CC7)CC6)CC5)nc4c3F)c12 (centres unmarked) [Compound 233] | > 70% | < 5.1 µM |  |
| C#Cc1c(F)ccc2cccc(-c3ncc4c(N5CC6CCC(C5)N6)nc(OC[C@@]56CCCN5[C@H](CN5CCN(CC7CCN(c8ccc9c(c8)n(C)c(=O)n9C8CCC(=O)NC8=O)CC7)CC5)CC6)nc4c3F)c12 (some centres unmarked) [Compound 234] | > 70% | < 5.1 µM |  |
| C#Cc1c(F)ccc2cc(O)cc(-c3ncc4c(N5CC6CCC(C5)N6)nc(N5CC[C@@H](N6CCC(CC7CCN(c8ccc9c(c8)n(C)c(=O)n9C8CCC(=O)NC8=O)CC7)CC6)C5)nc4c3F)c12 (stereo partly drawn) [Compound 236, 3-[5-[4-[[1-[(3R)-1-[4-(3,8-diazabicyclo[3.2.1]octan-3-yl)-7-(8-ethynyl-7-fluoro-3-hydroxy-1-naphthyl)-8-fluoro-pyrido[4,3-d]pyrimidin-2-yl]pyrrolidin-3-yl]-4-piperidyl]methyl]-1-piperidyl]-3-methyl-2-oxo-benzimidazol-1-yl]piperidine-2,6-dione] | > 70% | < 5.1 µM |  |
| C#Cc1c(F)ccc2cc(O)cc(-c3ccc4c(N5CC6CCC(C5)N6)nc(OCCN5CCC(CC6CCN(CC7CCN(c8ccc9c(c8)n(C)c(=O)n9C8CCC(=O)NC8=O)CC7)CC6)CC5)nc4c3F)c12 (centres unmarked) [Compound 237] | > 70% | < 5.1 µM |  |
| C#Cc1c(F)ccc2cccc(-c3ncc4c(N5CC6CCC(C5)N6)nc(OC[C@@]56CCCN5[C@H](CN5CCN(CC7CCN(c8ccc9c(c8F)CN(C8CCC(=O)NC8=O)C9=O)CC7)CC5)CC6)nc4c3F)c12 (some centres unmarked) [Compound 238] | > 70% | < 5.1 µM |  |
| C#Cc1c(F)ccc2cc(O)cc(-c3ncc4c(N5CC6CCC(C5)N6)nc(OCCN5CCC(CN6CCN(CC7CCN(c8ccc9c(c8F)CN(C8CCC(=O)NC8=O)C9=O)CC7)CC6(C)C)CC5)nc4c3F)c12 (centres unmarked) [Compound 239, 3-[5-[4-[[4-[[1-[2-[4-(3,8-diazabicyclo[3.2.1]octan-3-yl)-7-(8-ethynyl-7-fluoro-3-hydroxy-1-naphthyl)-8-fluoro-pyrido[4,3-d]pyrimidin-2-yl]oxyethyl]-4-piperidyl]methyl]-3,3-dimethyl-piperazin-1-yl]methyl]-1-piperidyl]-4-fluoro-1-oxo-isoindolin-2-yl]piperidine-2,6-dione] | > 70% | < 5.1 µM |  |
